Entries after “also recorded” stand apart in the source; their conditions may differ.
Key:
[1] = tested on: cholesterol oxidase derived from Nocardia erythropolis; assay: Effect of organic solvents on enzyme activity (Nocardia erythropolis); assay type: biochemical; settings: organic solvent 50% by volume of reaction solution; pH 7, 30° C.; no solvent = 1
[2] = tested on: cholesterol oxidase derived from Streptomyces sp.; assay: Effect of organic solvents on enzyme activity (Streptomyces sp.); assay type: biochemical; settings: organic solvent 50% by volume of reaction solution; pH 7, 30° C.; no solvent = 1
[3] = tested on: cholesterol oxidase derived from Pseudomonas sp.; assay: Effect of organic solvents on enzyme activity (Pseudomonas sp.); assay type: biochemical; settings: organic solvent 50% by volume of reaction solution; pH 7, 30° C.; no solvent = 1
[4] = tested on: cholesterol oxidase derived from Brevibacterium sp.; assay: Effect of organic solvents on enzyme activity (Brevibacterium sp.); assay type: biochemical; settings: organic solvent 50% by volume of reaction solution; pH 7, 30° C.; no solvent = 1
[5] = tested on: cholesterol oxidase derived from ST-200 strain; assay: Effect of organic solvents on enzyme activity (ST-200); assay type: biochemical, Pseudomonas sp. ST-200; settings: for Relative activity, ST-200: organic solvent 50% by volume of reaction solution, pH 7, 30° C., no solvent = 1; for Reaction velocity in solvent compared to cholesterol oxidases of Nocardia erythropolis, Pseudomonas sp., Streptomyces sp., Brevibacterium sp. (in words): organic solvent 50% by volume, 30° C., pH 7
[6] = tested on: cholesterol oxidase derived from ST-200 strain; assay: Substrate specificity of enzyme; assay type: biochemical, Pseudomonas sp. ST-200; settings: for Relative activity (%): various substrates, 30° C., pH 7, enzyme activity with cholesterol set to be 100
[7] = tested on: cholesterol oxidase derived from Pseudomonas sp. ST-200 (FERM BP-6661); assay: Effect of metal ions and the like (additives) on enzyme activity; assay type: biochemical; settings: additive at 1 mM; activity without additive = 100; cholesterol substrate, 30° C., pH 7
Procedure: Effect of metal ions and the like on the activity of the enzyme obtained in Example 1 was studied. Enzyme activity was measured as described in Test Example 1 at 30° C. at pH 7 after adding various metal compounds, to a final concentration of […], to the reaction system.

[8] = tested on: cholesterol oxidase derived from ST-200 strain; assay: Effect of metal ions and the like on enzyme activity; assay type: biochemical, Pseudomonas sp. ST-200; settings: for Relative activity (%): pH 7; for Inhibition of enzyme activity (in words): 1 mM
[9] = tested on: cholesterol oxidase derived from Streptomyces sp.; assay: Enzyme kinetics (Km, Vmax) of cholesterol oxidation, Lineweaver-Burk; assay type: biochemical; settings: 30° C., pH 7
Procedure: (§1) Enzyme activity was measured as described in Test Example 1 at 30° C. at pH 7.

[10] = tested on: cholesterol oxidase derived from Pseudomonas sp. ST-200 (FERM BP-6661); assay: as above; assay type: biochemical; settings: 30° C., pH 7, 0 to 1 mM cholesterol
Procedure: as §1

[11] = tested on: cholesterol oxidase derived from Brevibacterium sp.; assay: as above; assay type: biochemical; settings: 30° C., pH 7
Procedure: as §1

[12] = tested on: cholesterol oxidase derived from Pseudomonas sp. (comparison); assay: as above; assay type: biochemical; settings: 30° C., pH 7
Procedure: as §1

[13] = tested on: cholesterol oxidase derived from Nocardia erythropolis; assay: as above; assay type: biochemical; settings: 30° C., pH 7
Procedure: as §1

[14] = additive 1 mM, 30° C., cholesterol as substrate, activity without additive set to be 100
[15] = 0.03% Triton X-100, 0 to 1 mM cholesterol
[16] = head 0.03% Triton X-100 (0.3% in text)

**Q.** How did the “Relative activity, Nocardia erythropolis” value [1] turn out when `Cc1ccccc1` [Toluene] was run?
**A.** The value was 1.7.

**Q.** And the “Relative activity, Streptomyces sp.” value [2]?
**A.** The value was 1.2.

**Q.** What about the “Relative activity, Pseudomonas sp.” value [3] of the same compound?
**A.** The value was 1.4.

**Q.** What about the “Relative activity, Brevibacterium sp.” value [4] of the same compound?
**A.** Its value is 0.5.

**Q.** What about the “Effect of organic solvent on reaction velocity (in words)” value [5] of the same compound?
**A.** The value was “increased”.

**Q.** And the “Relative activity, ST-200” value [5]?
**A.** The value was 3.5.

**Q.** What about the “Reaction velocity in solvent compared to cholesterol oxidases of Nocardia erythropolis, Pseudomonas sp., Streptomyces sp., Brevibacterium sp. (in words)” value [5] of the same compound?
**A.** Its value is “higher reaction velocity”.

**Q.** For `C[C@]12CC[C@H](O)CC1=CC[C@@H]1[C@@H]2CC[C@]2(C)C(=O)CC[C@@H]12` [Dehyoepiandrosterone, 3β-Hydroxyandrost-5-en-17-one], which “Relative activity (%)” value [6] is on record?
**A.** The value was 16%.

**Q.** Which Relative activity [7] does the source give for `O=C(O)CN(CCN(CC(=O)O)CC(=O)O)CC(=O)O` [EDTA] here?
**A.** Its Relative activity is 88%.

**Q.** What does the source list for `c1ccc(Cc2ccccc2)cc1` [Diphenylmethane]?
**A.** Relative activity, Nocardia erythropolis [1]: 1.6; Relative activity, Streptomyces sp. [2]: 1.0; Relative activity, Pseudomonas sp. [3]: 1.5; Relative activity, Brevibacterium sp. [4]: 0.8; Effect of organic solvent on reaction velocity (in words) [5]: increased; Relative activity, ST-200 [5]: 3.1; Reaction velocity in solvent compared to cholesterol oxidases of Nocardia erythropolis, Pseudomonas sp., Streptomyces sp., Brevibacterium sp. (in words) [5]: higher reaction velocity

**Q.** `[Cl-].[Cl-].[Mg+2]` [Magnesium chloride] was tested. Which “Relative activity (%)” value [8] did it give?
**A.** The value was 102%.

**Q.** What does the source list for `O=[N+]([O-])[O-].[Ag+]` [Silver nitrate]?
**A.** Relative activity (%) [8, 14]: 2%; Inhibition of enzyme activity (in words) ([8]; cholesterol as substrate): inhibited; also recorded: strongly inhibited

**Q.** `CCCc1ccccc1` [Propylbenzene] was tested. Which “Relative activity, Nocardia erythropolis” value [1] did it give?
**A.** The value was 1.6.

**Q.** What about the “Relative activity, Streptomyces sp.” value [2] of the same compound?
**A.** The value was 1.1.

**Q.** What about the “Relative activity, Pseudomonas sp.” value [3] of the same compound?
**A.** Its value is 1.3.

**Q.** What about the “Relative activity, Brevibacterium sp.” value [4] of the same compound?
**A.** Its value is 0.8.

**Q.** And the “Effect of organic solvent on reaction velocity (in words)” value [5]?
**A.** Its value is “increased”.

**Q.** And the “Relative activity, ST-200” value [5]?
**A.** The value was 3.2.

**Q.** And the “Reaction velocity in solvent compared to cholesterol oxidases of Nocardia erythropolis, Pseudomonas sp., Streptomyces sp., Brevibacterium sp. (in words)” value [5]?
**A.** Its value is “higher reaction velocity”.

**Q.** With `CC(C)CCC[C@@H](C)[C@H]1CC[C@H]2[C@@H]3CC=C4C[C@@H](O)CC[C@]4(C)[C@H]3CC[C@]12C` [Cholesterol, cholest-5-en-3β-ol] as the compound, how does the “Action of the enzyme on the substrate (in words)” value [6] read?
**A.** The value was “strongly oxidized”.

**Q.** What about the “Relative activity (%)” value [6] of the same compound?
**A.** The value was 100%.

**Q.** What about the Km [9, 15] of the same compound?
**A.** Its Km is 16.3 µM.

**Q.** What about the Vmax [9, 15] of the same compound?
**A.** The Vmax was 15.8 µmol/min/mg.

**Q.** And the Km [9, 16]?
**A.** The Km was 160 µM.

**Q.** What about the Vmax [9, 16] of the same compound?
**A.** Its Vmax is 15.3 µmol/min/mg.

**Q.** What about the Km ([10]; 0.03% Triton X-100) of the same compound?
**A.** The Km was 4.04 µM.

**Q.** What about the Vmax ([10]; 0.03% Triton X-100) of the same compound?
**A.** The Vmax was 13.1 µmol/min/mg.

**Q.** And the Km [10, 16]?
**A.** Its Km is 52.2 µM.

**Q.** And the Vmax [10, 16]?
**A.** The Vmax was 12.1 µmol/min/mg.

**Q.** And the Km [11, 15]?
**A.** Its Km is 63.3 µM.

**Q.** And the Vmax [11, 15]?
**A.** The Vmax was 12.0 µmol/min/mg.

**Q.** And the Km [11, 16]?
**A.** The Km was 925 µM.

**Q.** And the Vmax [11, 16]?
**A.** Its Vmax is 11.3 µmol/min/mg.

**Q.** And the Km [12, 15]?
**A.** The Km was 9.41 µM.

**Q.** And the Vmax [12, 15]?
**A.** Its Vmax is 11.0 µmol/min/mg.

**Q.** And the Km [12, 16]?
**A.** Its Km is 76.1 µM.

**Q.** What about the Vmax [12, 16] of the same compound?
**A.** The Vmax was 10.3 µmol/min/mg.

**Q.** What about the Km [13, 15] of the same compound?
**A.** Its Km is 5.14 µM.

**Q.** And the Vmax [13, 15]?
**A.** Its Vmax is 9.8 µmol/min/mg.

**Q.** And the Km [13, 16]?
**A.** The Km was 44 µM.

**Q.** And the Vmax [13, 16]?
**A.** Its Vmax is 6.8 µmol/min/mg.

**Q.** How did the “Relative activity (%)” value [8, 14] turn out when `[Cl][Hg][Cl]` [Mercury chloride] was run?
**A.** The value was 0%.

**Q.** And the “Inhibition of enzyme activity (in words)” value ([8]; cholesterol as substrate)?
**A.** Its value is “inhibited; also recorded: strongly inhibited”.

**Q.** With Manganese chloride as the compound, how does the “Relative activity (%)” value [8, 14] read?
**A.** Its value is 92%.

**Q.** For `c1ccc(-c2ccccn2)nc1` [α,α-dipyridyl], which Relative activity [7] is on record?
**A.** Its Relative activity is 98%.

**Q.** With `c1ccc(-c2ccccn2)nc1` [α,α-dipyridyl, reference compound] as the compound, how does the “Relative activity (%)” value [8] read?
**A.** Its value is 98%.

**Q.** Which “Relative activity (%)” value [6] does the source give for `CC(=O)[C@H]1CC[C@H]2[C@@H]3CC=C4C[C@@H](O)CC[C@]4(C)[C@H]3CC[C@]12C` [Pregnenolone, 3β-Hydroxypregn-5-en-20-one] here?
**A.** The value was 32%.

**Q.** For `[Ca+2].[Cl-].[Cl-]` [Calcium chloride], which “Relative activity (%)” value [8] is on record?
**A.** The value was 106%.

Reference: patent US20030153051A1, “Cholesterol oxidase” (priority 1998, published 2003)
